Reference: the OPERA property sets (Mansouri et al. 2018)

Details: for log10 biotransformation half-life (days) / log10 BCF: fish

SMILES	boiling point [°C]	melting point [°C]	other results
FC(F)(F)C1(F)C(F)(F)C(F)(F)C(F)(F)C(F)(F)C1(F)F	76.3	-44.7	log10 vapour pressure (mmHg): 2.02
CCNC=O	198	–	–
CC(=O)CCC(C)=O	194	-5.5	–
CCCCC(C)C(C)CC (stereo not drawn)	163	–	–
C=CC(C)CC (stereo not drawn)	54.2	-153	log10 vapour pressure (mmHg): 2.43
CCCCCCC1CCCC(C)C1 (stereo not drawn)	–	–	log10 biotransformation half-life (days): 0.97
CC(=O)CC(c1ccc(Cl)cc1)c1c(O)c2ccccc2oc1=O (stereo not drawn)	–	169	–
C[C@]12CCC(=O)C=C1CC[C@@H]1[C@@H]2C(=O)C[C@@]2(C)[C@H]1CC[C@]2(O)C(=O)CO	–	222	–
O=C1C(O)=C(O)C(=O)c2ccccc21	–	282	–
CCN(N)CC	99	–	–
Brc1ccccc1Oc1ccccc1	–	–	log10 Koa: 7.24
O=C(O)c1ccc(Sc2ccccc2)cc1	–	–	ready biodegradability: readily biodegradable
CCOC(=O)CN(C(=O)CCl)c1c(CC)cccc1CC	–	49.5	log10 Koc (L/kg): 2
C[C@@H](N)c1ccccc1	–	–	ready biodegradability: not readily biodegradable
CCCCCCOC=O	156	-62.6	–
CC1=CCC2C(C1)C2(C)C (stereo not drawn)	170	–	–
CCCCCCCCCCCCCCCO	–	45.5	log10 vapour pressure (mmHg): -4.41; ready biodegradability: readily biodegradable
Cc1cc(=O)oc2cc(O)ccc12	–	196	–
O=S(=O)(c1ccccc1)c1ccc(Cl)cc1	–	94	–
C#CCCOC1CCCCO1 (stereo not drawn)	–	–	ready biodegradability: readily biodegradable

SMILES	boiling point [°C]	melting point [°C]	other results
COc1cc(C(=O)O)cc(OC)c1OC	–	172	–
CCCCCCCCCCCCCCCCCCCCCC	369	44.4	log10 biodegradation half-life (days): 2.1; log10 vapour pressure (mmHg): -5.89; ready biodegradability: readily biodegradable
CCOP(=O)(N=C1SCS1)OCC	–	–	log10 vapour pressure (mmHg): -5.19
CNC(=O)OCc1cccc(COC(=O)NC)n1	–	136	–
CCCC/C=C\CCCCCCCCCC=O	250	–	–
ClCCOCCOCCCl	232	-31.5	log10 vapour pressure (mmHg): -1.22; ready biodegradability: not readily biodegradable
c1coc(CSSCc2ccco2)c1	–	10	–
C[N+]1(C)CCCCC1.[Cl-]	–	223	–
O=C(c1ccc(Cl)cc1)c1ccccc1Cl	–	67	–
COc1cc2c(c(OC)c1OC)-c1ccc(OC)c(=O)cc1[C@@H](NC(C)=O)CC2	–	156	–
O=C1CSC(=S)N1	–	170	–
Fc1c(F)c(F)c(I)c(F)c1F	166	-29	–
c1ccc2c(c1)Cc1ccccc1N2	347	–	–
Cc1c2ccccc2cc2c1ccc1ccccc12	–	141	log10 biotransformation half-life (days): -0.05
C/C(=C\C(=O)O)C1CCCCC1	–	85.5	–
CCC(C)c1cc([N+](=O)[O-])cc([N+](=O)[O-])c1O (stereo not drawn)	332	40	log10 Koc (L/kg): 2.7; ready biodegradability: not readily biodegradable; log10 BCF: 1.79
O=C(O)c1ccc(C(F)(F)F)cc1	–	220	–
N#C/C(=N\OCC1OCCO1)c1ccccc1	–	77.7	log10 vapour pressure (mmHg): -5.4
CC(C)c1ccc(O)cc1	230	62.3	log10 vapour pressure (mmHg): -1.34
c1ccc(-c2nc(-c3ccccc3)c(-c3ccccc3)[nH]2)cc1	–	275	–

SMILES	boiling point [°C]	melting point [°C]	other results
CC(C)OC(=O)C(O)(c1ccc(Cl)cc1)c1ccc(Cl)cc1	–	73	log10 vapour pressure (mmHg): -6.74
Clc1ccc(-c2ccc(Cl)cc2)cc1	317	149	log10 Henry constant (atm·m³/mol): -3.7; log10 Koa: 7.68; log10 vapour pressure (mmHg): -3.27
Cc1cccc(O)c1[N+](=O)[O-]	–	37	log10 Henry constant (atm·m³/mol): -5.51; log10 vapour pressure (mmHg): -1.43
OCCN1CCCCC1	202	17.9	–
CCC1(C)CC1	56.8	-130	–
C#CC(C)Cl (stereo not drawn)	68.5	–	–
CC(=O)N(C)c1ccccc1	256	103	ready biodegradability: not readily biodegradable; log10 BCF: 0.18; log10 biotransformation half-life (days): -1.12
CCNC(=O)/C=C(C)/C=C/C=C(C)/C=C/c1c(C)cc(OC)c(C)c1C	–	180	–
CCCCCCN1CC(C(=O)O)CC1=O (stereo not drawn)	–	42.5	–
Nc1cccc([N+](=O)[O-])c1	306	114	log10 Henry constant (atm·m³/mol): -8.1; log10 Koc (L/kg): 1.73; log10 vapour pressure (mmHg): -4.02; ready biodegradability: not readily biodegradable; log10 BCF: 0.48; log10 biotransformation half-life (days): -0.77
CN1C(=O)OC(C)(C)C1=O	–	46	–
ClCCCCCl	161	-37.3	log10 Henry constant (atm·m³/mol): -3.31; log10 vapour pressure (mmHg): 0.616; ready biodegradability: not readily biodegradable
COCCOC	85	-58	log10 vapour pressure (mmHg): 1.68
O=C(O)CP(=O)(O)O	–	144	–
COc1cc(C=CC(=O)O)ccc1O	–	–	ready biodegradability: readily biodegradable
NC[C@H](O)[C@@H](O)[C@@H](O)[C@H](O)CO	–	127	–
CCc1c(C)c[nH]c1C	199	0	–
CO[Si](C)(OC)OC	102	–	–
c1ccc2c(c1)CCc1ccccc1N2	–	106	–
Cc1c(Cl)cc(Cl)c(O)c1Cl	265	46	–
